Test results taken from ChEMBL document CHEMBL1155556, “New macrolactins from a marine Bacillus sp. Sc026” (2000).

Assays:
Assay type in all cases: functional
Conditions in all cases: read-out: IZ
Bacillus subtilis [1] = test: Antibacterial activity against Bacillus subtilis ATCC 6633 at 100 ug/disk by agar diffusion assay
Staphylococcus aureus [2] = test: Antibacterial activity against Staphylococcus aureus ATCC 25923 at 100 ug/disk by agar diffusion assay
Bacillus subtilis [3] = test: Antibacterial activity against Bacillus subtilis ATCC 6633 at 50 ug/disk by agar diffusion assay
Staphylococcus aureus [4] = test: Antibacterial activity against Staphylococcus aureus ATCC 25923 at 50 ug/disk by agar diffusion assay

Row | Compound | zone of inhibition at 100 µg/disc (Bacillus subtilis [1]) [mm] | zone of inhibition at 100 µg/disc (Staphylococcus aureus [2]) [mm] | zone of inhibition at 50 µg/disc (Bacillus subtilis [3]) [mm] | zone of inhibition at 50 µg/disc (Staphylococcus aureus [4]) [mm]
1 | C[C@@H]1CCC/C=C/CCC(=O)C[C@@H](O)C/C=C\C=C\[C@@H](OC(=O)CCC(=O)O)C/C=C/C=C\C(=O)O1 | 9 | 8 |  | 
2 | C[C@@H]1CCC/C=C/C=C/[C@H](O)C[C@@H](O)C/C=C\C=C\[C@@H](OC(=O)CCC(=O)O)C/C=C/C=C\C(=O)O1 [7-O-SUCCINYL MACROLACTIN A] |  |  | 10 | 24
3 | C[C@@H]1CCC/C=C/CCC(=O)C[C@@H](O)C/C=C\C=C\[C@@H](O)C/C=C/C=C\C(=O)O1 [MACROLACTIN F] | 8 | 28 |  | 
